One assay addresses T1, 7E3 binding to platelets (Homo sapiens, UniProt P05106+P08514).
T1 construct: endogenous in cells; host or cells: platelets in citrated platelet-rich plasma (PRP)
Put plainly: Effect of RGD peptides on initial rate of 125I-7E3 binding to platelets. Here is the method:
(§1) To assess the effect of RGD-containing peptides on the initial rate of binding of 7E3 and 10E5, studies were conducted with ^125 I-7E3 and ^125 I-10E5 essentially as described before (Coller, B.S., 1985, J. Clin. Invest. 76:101). The RGDS or LGGAKQAGDV(R)8 RGDV peptide was incubated at 22° C. with citrated PRP (~3×10^8 /ml) for 1 to 5 min at various concentrations and then non-saturating concentrations of the antibodies (1.5-2.5 μg/ml) were added for 1 to 2 min. The bound antibody was separated from the free by centrifugation of the PRP through 20% sucrose and both the platelet pellet and the supernatant were counted. Results were expressed as either an increase or decrease in antibody binding as compared to a buffer control.

Assay [1] has as its target T2, 10E5 binding to platelets (Homo sapiens, UniProt P05106+P08514).
T2 construct: endogenous in cells; host or cells: platelets in citrated platelet-rich plasma (PRP)
Put plainly: Effect of RGD peptides on initial rate of 125I-10E5 binding to platelets. The settings on record: similar concentrations (up to 5 mM); one experiment. Here is the method:
as §1

T1 sequence (P08514 32-887 limits assumed): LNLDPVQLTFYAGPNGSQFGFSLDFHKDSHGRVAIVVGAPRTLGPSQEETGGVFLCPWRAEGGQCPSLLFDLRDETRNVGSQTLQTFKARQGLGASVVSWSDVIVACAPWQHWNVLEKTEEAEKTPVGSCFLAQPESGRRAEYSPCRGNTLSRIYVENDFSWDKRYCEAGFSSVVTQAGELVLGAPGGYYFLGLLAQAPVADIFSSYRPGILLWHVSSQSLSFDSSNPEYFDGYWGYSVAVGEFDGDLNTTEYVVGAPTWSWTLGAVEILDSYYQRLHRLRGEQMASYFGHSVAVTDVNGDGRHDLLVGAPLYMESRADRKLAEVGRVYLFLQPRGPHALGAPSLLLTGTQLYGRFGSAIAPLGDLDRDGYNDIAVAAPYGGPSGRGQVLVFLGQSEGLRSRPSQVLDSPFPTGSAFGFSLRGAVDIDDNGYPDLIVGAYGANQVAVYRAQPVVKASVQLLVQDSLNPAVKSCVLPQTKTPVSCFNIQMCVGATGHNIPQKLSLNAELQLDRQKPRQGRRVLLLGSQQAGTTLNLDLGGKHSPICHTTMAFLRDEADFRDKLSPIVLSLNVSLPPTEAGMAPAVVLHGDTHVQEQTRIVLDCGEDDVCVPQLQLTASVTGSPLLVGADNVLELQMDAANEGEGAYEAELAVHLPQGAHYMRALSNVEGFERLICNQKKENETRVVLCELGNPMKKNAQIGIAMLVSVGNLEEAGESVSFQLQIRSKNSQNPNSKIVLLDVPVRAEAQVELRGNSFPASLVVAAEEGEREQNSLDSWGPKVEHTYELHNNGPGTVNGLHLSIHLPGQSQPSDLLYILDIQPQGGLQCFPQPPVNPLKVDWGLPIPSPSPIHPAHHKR
T1 sequence (P08514 891-1039 partner limits assumed): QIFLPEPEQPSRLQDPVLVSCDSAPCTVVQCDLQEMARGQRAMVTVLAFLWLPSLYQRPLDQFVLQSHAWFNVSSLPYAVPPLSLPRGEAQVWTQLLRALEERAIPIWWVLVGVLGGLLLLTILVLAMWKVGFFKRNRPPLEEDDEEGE
T1 sequence (P05106 27-788): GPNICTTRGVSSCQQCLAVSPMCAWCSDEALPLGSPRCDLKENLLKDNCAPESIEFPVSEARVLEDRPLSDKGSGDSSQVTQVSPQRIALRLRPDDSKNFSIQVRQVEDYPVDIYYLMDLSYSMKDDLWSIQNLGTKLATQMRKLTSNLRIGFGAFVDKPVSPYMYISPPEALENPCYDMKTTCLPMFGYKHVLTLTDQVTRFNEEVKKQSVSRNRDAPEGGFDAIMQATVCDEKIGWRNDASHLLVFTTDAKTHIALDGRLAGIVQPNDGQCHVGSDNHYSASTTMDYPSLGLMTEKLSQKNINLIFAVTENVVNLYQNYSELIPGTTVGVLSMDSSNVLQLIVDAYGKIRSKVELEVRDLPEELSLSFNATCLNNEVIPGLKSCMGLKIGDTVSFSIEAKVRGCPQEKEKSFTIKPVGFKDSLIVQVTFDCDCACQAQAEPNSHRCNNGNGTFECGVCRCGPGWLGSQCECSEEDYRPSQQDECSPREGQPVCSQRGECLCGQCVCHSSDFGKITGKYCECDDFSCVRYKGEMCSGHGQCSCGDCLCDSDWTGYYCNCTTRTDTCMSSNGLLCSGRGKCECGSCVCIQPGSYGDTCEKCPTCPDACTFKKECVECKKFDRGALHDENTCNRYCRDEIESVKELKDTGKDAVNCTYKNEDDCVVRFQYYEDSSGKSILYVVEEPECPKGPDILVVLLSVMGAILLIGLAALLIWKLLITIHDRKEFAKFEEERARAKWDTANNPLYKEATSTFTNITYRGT
T2 sequence (P08514 32-887 limits assumed): as the sequence (P08514 32-887 limits assumed) above
T2 sequence (P08514 891-1039 partner limits assumed): as the sequence (P08514 891-1039 partner limits assumed) above
T2 sequence (P05106 27-788): as the sequence (P05106 27-788) above

In the case of RGDS, the “increase in initial rate of 7E3 binding” value on 7E3 binding to platelets (peptide 2.5 mM, n=1) is reported as 63%; on 7E3 binding to platelets (peptide 5 mM, citrated PRP, n=2), 66%; at 7E3 binding to platelets (peptide 0.5-1 mM, n=4), 21%. In addition, in assay [1], the “decrease in rate of 10E5 binding” value came to 5%.
